In PMC7155171, “Probing the Open Global Health Chemical Diversity Library for Multistage-Active Starting Points for Next-Generation Antimalarials” (ACS Infectious Diseases, 2020) one finds IC50 and Emax data, which are given here for 19 compounds.

Like-named read-outs stand apart in the source and are kept apart here.

Experiment [1] relates to P. falciparum Dd2 (PfLuc) line expressing firefly luciferase, asexual blood stage. The experiment in a line: microbe, parasite or virus in culture. Type of experiment: cell-based, Plasmodium falciparum. As to conditions: Plasmodium falciparum.
The subject of experiment [2] is P. falciparum Dd2. In words: SYBR green I asexual blood stage proliferation assay (96 h). Type of experiment: cell-based, Plasmodium falciparum. As to conditions: Plasmodium falciparum, DD2, 11-pt dose response, 96hr.
Setting [3] is: DD2, read-out: CDD P. falciparum Luciferase ABS 11-pt Reconfirmation Dose Response (48hr): IC50 (μM), 11-pt dose response, 48hr.
Setting [4] is: DD2, 8-pt dose response, 96hr, read-out: CDD P. falciparum Luciferase ABS 8-pt Reconfirmation Dose Response (96hr): IC50.
Where [5] appears, read: DD2, 8-pt dose response, 96hr, read-out: CDD P. falciparum Luciferase ABS 8-pt Reconfirmation Dose Response (96hr): Maximum inhibition (%).
Setting [6] is: DD2, 11-pt dose response, 48hr, read-out: CDD P. falciparum Luciferase ABS 11-pt Reconfirmation Dose Response (48hr): Maximum inhibition (%).
Setting [7] is: DD2, 11-pt dose response, 96hr, read-out: CDD P. falciparum Luciferase ABS 11-pt Reconfirmation Dose Response (96hr): IC50.
Setting [8] is: DD2, 11-pt dose response, 96hr, read-out: CDD P. falciparum Luciferase ABS 11-pt Reconfirmation Dose Response (96hr): Maximum inhibition (%).
Where [9] appears, read: Sybr Green I, read-out: CDD P. falciparum Sybr Green I ABS 11-pt Reconfirmation Dose Response (96hr): IC50.
The mark [10] stands for this setting: Sybr Green I, read-out: CDD P. falciparum Sybr Green I ABS 11-pt Reconfirmation Dose Response (96hr): Maximum inhibition (%).
The mark [11] stands for this setting: DD2, read-out: P. falciparum Luciferase ABS 11-pt Reconfirmation Dose Response (48hr): IC50, 11-pt dose response, 48hr.
Where [12] appears, read: DD2, 8-pt dose response, 96hr, read-out: P. falciparum Luciferase ABS 8-pt Reconfirmation Dose Response (96hr): IC50.
[13] abbreviates: DD2, 8-pt dose response, 96hr, read-out: P. falciparum Luciferase ABS 8-pt Reconfirmation Dose Response (96hr): Maximum inhibition (%).
Where [14] appears, read: DD2, 11-pt dose response, 48hr, read-out: P. falciparum Luciferase ABS 11-pt Reconfirmation Dose Response (48hr): Maximum inhibition (%).
Where [15] appears, read: DD2, 11-pt dose response, 96hr, read-out: P. falciparum Luciferase ABS 11-pt Reconfirmation Dose Response (96hr): IC50.
Where [16] appears, read: DD2, 11-pt dose response, 96hr, read-out: P. falciparum Luciferase ABS 11-pt Reconfirmation Dose Response (96hr): Maximum inhibition (%).
The mark [17] stands for this setting: read-out: P. falciparum Sybr Green I ABS 11-pt Reconfirmation Dose Response (96hr): IC50.
[18] abbreviates: read-out: P. falciparum Sybr Green I ABS 11-pt Reconfirmation Dose Response (96hr): Maximum inhibition (%).

As usually defined, the IC50 is the concentration that gives 50% inhibition. In the case of `NCC1[C@H]2CN(Cc3cccc(Cl)c3)C[C@@H]12` (stereo partly drawn) [DDD01029240], the IC50 in experiment [1] (setting [3]) came to 2.68 µM; in experiment [1] (setting [4]), 0.55 µM; in experiment [1] (setting [7]) it was 1.2 µM; in experiment [2] (setting [9]) it was 1890 nM. Besides, the Emax stood at 93.8% in experiment [1] (setting [5]), 85% in experiment [1] (setting [6]), 99% in experiment [1] (setting [8]) and 90.7% in experiment [2] (setting [10]).
For the compound `c1ccc(CN2CCCC3(CCN(Cc4cccs4)C3)C2)nc1` (stereo not drawn) [DDD01029520], the IC50 in experiment [1] (setting [11]) was 6.38 µM; in experiment [1] (setting [12]), 1.97 µM; in experiment [1] (setting [15]), 2.96 µM; in experiment [2] (setting [17]), more than 4160 nM. Also, the Emax in experiment [1] (setting [13]) turned out to be 83.5%; in experiment [1] (setting [14]), 51.8%; in experiment [1] (setting [16]), 86.9%; in experiment [2] (setting [18]), 58%.
On to `c1ccc(N2CCCC3(CCN(Cc4ccsc4)C3)C2)nc1` (stereo not drawn) [DDD01029521], for which the IC50 stood at 3.75 µM in experiment [1] (setting [3]), 1.02 µM in experiment [1] (setting [4]), 2.51 µM in experiment [1] (setting [7]) and 1880 nM in experiment [2] (setting [9]). The Emax in experiment [1] (setting [5]) was determined as 83.9%; in experiment [1] (setting [6]) it was 64.3%; in experiment [1] (setting [8]) it was 86.9%; in experiment [2] (setting [10]), 66.8%.
Regarding `Fc1ccc(CN2CCC3(CC2)CCN(Cc2nccs2)CC3)cc1` [DDD01031337], the IC50 was 8.85 µM in experiment [1] (setting [3]), 0.78 µM in experiment [1] (setting [4]), 1.46 µM in experiment [1] (setting [7]) and more than 1390 nM in experiment [2] (setting [9]). The Emax in experiment [1] (setting [5]) turned out to be 88.8%; in experiment [1] (setting [6]), 69.4%; in experiment [1] (setting [8]) it was 87.9%; in experiment [2] (setting [10]), 71.7%.
`Cc1ccc(CN2CCC3(CC2)CCN(Cc2ccoc2)CC3)cc1` [DDD01031590]: the IC50 in experiment [1] (setting [3]) was 2.04 µM; in experiment [1] (setting [4]), 0.24 µM; in experiment [1] (setting [7]) it was 0.444 µM; in experiment [2] (setting [9]) it was 2330 nM. For the same compound, the values for the Emax in experiment [1] (setting [5]), in experiment [1] (setting [6]) and in experiment [1] (setting [8]) were 94.3%, 86.7% and 99.4%, respectively.
With `Cc1ccc(CN2CCC3(CC2)CCN(Cc2ccco2)CC3)cc1` [DDD01031591], the IC50 was 7.27 µM in experiment [1] (setting [3]), 0.77 µM in experiment [1] (setting [4]), 0.938 µM in experiment [1] (setting [7]) and 6720 nM in experiment [2] (setting [9]). For the same compound, the Emax in experiment [1] (setting [6]) turned out to be 74.1%; in experiment [1] (setting [8]), 94.4%; in experiment [2] (setting [10]), 84.1%.
Consider `CN1[C@H](Cn2cccn2)C[C@@H]2CN(Cc3cccs3)CC[C@@H]21` [DDD01032287], for which the IC50 was more than 12.5 µM in experiment [1] (setting [3]), 0.77 µM in experiment [1] (setting [4]), more than 1.39 µM in experiment [1] (setting [7]) and more than 4160 nM in experiment [2] (setting [9]). Moreover, the Emax stood at 80.2% in experiment [1] (setting [5]), 45.9% in experiment [1] (setting [6]), 85.9% in experiment [1] (setting [8]) and 67.6% in experiment [2] (setting [10]).
With `c1cncc(N2CCCC3(CCN(CCN4CCCC4)CC3)C2)c1` [DDD01032557], the IC50 came out at 7.21 µM in experiment [1] (setting [11]), 1.19 µM in experiment [1] (setting [12]), 1.41 µM in experiment [1] (setting [15]) and 2440 nM in experiment [2] (setting [17]). The Emax in experiment [1] (setting [14]) came to 83.2%; in experiment [1] (setting [16]), 99.7%; in experiment [2] (setting [18]) it was 93.7%.
For the compound `CN(C)[C@@H]1CCN(c2ncc(F)cn2)[C@H]1Cc1ccccc1` [DDD01033375], the IC50 in experiment [1] (setting [3]) was 5.55 µM; in experiment [1] (setting [4]) it was 1.11 µM; in experiment [1] (setting [7]) it was 2.25 µM; in experiment [2] (setting [9]), more than 4160 nM. Besides, the Emax in experiment [1] (setting [5]) turned out to be 86.7%; in experiment [1] (setting [6]), 53.2%; in experiment [1] (setting [8]) it was 86.9%; in experiment [2] (setting [10]), 74.6%.
In the case of `CCN1CCC2(CC1)CC(NCc1cccs1)c1ccccc1O2` (stereo not drawn) [DDD01034117], the IC50 in experiment [1] (setting [3]) was determined as 2.44 µM; in experiment [1] (setting [4]), 0.39 µM; in experiment [1] (setting [7]), 0.515 µM; in experiment [2] (setting [9]) it was 3400 nM. Moreover, the Emax in experiment [1] (setting [5]) is 91.4%; in experiment [1] (setting [6]), 72.4%; in experiment [1] (setting [8]) it was 91.9%; in experiment [2] (setting [10]) it was 78.6%.
With `CCN1CCC2(CC1)CC(NCc1cccc(C)n1)c1ccccc1O2` (stereo not drawn) [DDD01034133], the IC50 in experiment [1] (setting [3]) was 11.7 µM; in experiment [1] (setting [4]), 0.72 µM; in experiment [1] (setting [7]) it was 3.23 µM; in experiment [2] (setting [9]), 10300 nM. In addition, the figures for the Emax in experiment [1] (setting [6]), in experiment [1] (setting [8]) and in experiment [2] (setting [10]) were 67.5%, 88.1% and 79.5%, respectively.
With `CCN1CCC2(CC1)CC(NCc1ccncc1)c1ccccc1O2` (stereo not drawn) [DDD01034171], the IC50 is more than 12.5 µM in experiment [1] (setting [3]), 0.75 µM in experiment [1] (setting [4]), 3.05 µM in experiment [1] (setting [7]) and more than 4160 nM in experiment [2] (setting [9]). Also, the Emax in experiment [1] (setting [5]) came to 87.7%; in experiment [1] (setting [6]), 61.8%; in experiment [1] (setting [8]) it was 86%; in experiment [2] (setting [10]), 74%.
`COc1ccc(N2CCCC3(C2)CN(c2nncs2)CCO3)cc1` (stereo not drawn) [DDD01034473]: the IC50 was found to be 0.758 µM in experiment [1] (setting [3]), 0.2 µM in experiment [1] (setting [4]), 0.451 µM in experiment [1] (setting [7]) and 830 nM in experiment [2] (setting [9]). For the same compound, the Emax in experiment [1] (setting [5]) came out at 95%; in experiment [1] (setting [8]), 97.9%; in experiment [2] (setting [10]) it was 95.3%.
Regarding `CCOc1ccc(Br)cc1C1CCCCN1` (stereo not drawn) [DDD01034784], the 50% inhibitory concentration (IC50) in experiment [1] (setting [3]) was more than 12.5 µM; in experiment [1] (setting [4]) it was 0.81 µM; in experiment [1] (setting [7]), more than 1.39 µM; in experiment [2] (setting [9]) it was 2780 nM. Also, the Emax worked out at 86.8% in experiment [1] (setting [5]), 60% in experiment [1] (setting [6]), 90.9% in experiment [1] (setting [8]) and 65.2% in experiment [2] (setting [10]).
With `CCOc1ccc(Br)cc1C1CCCN1` (stereo not drawn) [DDD01034787], the IC50 in experiment [1] (setting [3]) turned out to be 4.88 µM; in experiment [1] (setting [4]), 0.85 µM; in experiment [1] (setting [7]), 1.38 µM; in experiment [2] (setting [9]) it was 7590 nM. In addition, the Emax is 85.8% in experiment [1] (setting [5]), 59.1% in experiment [1] (setting [6]), 86.3% in experiment [1] (setting [8]) and 78.7% in experiment [2] (setting [10]).
For the compound `Cc1c(C)n(CC(O)CN2CCN(CCO)CC2)c2c(Cl)cccc12` (stereo not drawn) [DDD01034970], the IC50 in experiment [1] (setting [11]) is 3.79 µM; in experiment [1] (setting [12]), 1.15 µM; in experiment [1] (setting [15]) it was 2.24 µM; in experiment [2] (setting [17]), more than 4160 nM. Further, the Emax in experiment [1] (setting [13]) is 85.4%; in experiment [1] (setting [14]), 86.8%; in experiment [1] (setting [16]), 95.9%; in experiment [2] (setting [18]), 73.1%.
Turning to `CC(N)Cc1ccccc1Sc1ccccc1` (stereo not drawn) [DDD01035540], the IC50 was 3.57 µM in experiment [1] (setting [11]), 1.63 µM in experiment [1] (setting [12]), 0.558 µM in experiment [1] (setting [15]) and 4170 nM in experiment [2] (setting [17]). For the same compound, the Emax is 92% in experiment [1] (setting [13]), 89.6% in experiment [1] (setting [14]), 98.2% in experiment [1] (setting [16]) and 86.1% in experiment [2] (setting [18]).
Regarding `c1ccc(Sc2ccc3c(c2)OCO3)c(CNC2=NCCN2)c1` [DDD01035544], the 50% inhibitory concentration (IC50) in experiment [1] (setting [3]) was 7.86 µM; in experiment [1] (setting [4]) it was 1.05 µM; in experiment [1] (setting [7]), 1.67 µM; in experiment [2] (setting [9]), more than 4160 nM. In addition, the Emax in experiment [1] (setting [5]) worked out at 85.5%; in experiment [1] (setting [6]) it was 75%; in experiment [1] (setting [8]) it was 95.1%; in experiment [2] (setting [10]), 65.9%.
For the compound `CN(C)[C@@H]1CCN(c2ncccn2)[C@H]1Cc1ccccc1` [DDD01036700], the IC50 was more than 12.5 µM in experiment [1] (setting [3]), 0.85 µM in experiment [1] (setting [4]), 2.4 µM in experiment [1] (setting [7]) and more than 4160 nM in experiment [2] (setting [9]). Besides, the Emax in experiment [1] (setting [5]) is 85.6%; in experiment [1] (setting [6]), 47.6%; in experiment [1] (setting [8]), 80.9%; in experiment [2] (setting [10]), 74.7%.
